In ChEMBL document CHEMBL3217491, “Design, synthesis and biological evaluation of imidazopyridine/pyrimidine-chalcone derivatives as potential anticancer agents” (2010) one finds inhibition and Activity data, which are given here for one molecule.

Assay [1] relates to MCF7. Kind of assay: Growth inhibition of human MCF7 cells assessed as cell viability at 4 uM after 24 hrs by MTT assay. Type of assay: functional, cell-based. (Formazan colour is commonly taken as a measure of viable cells.)
The subject of assay [2] is MCF7. Put plainly: Cell cycle arrest in human MCF7 cells assessed as accumulation at G0/G1 phase at 4 uM after 24 hrs by propidium iodide staining-based flow cytometry (reference value: 64.04%). The format is functional. (A flow cytometer gives signals particle by particle.)
For assay [3], the system named is MCF7. Put plainly: Cell cycle arrest in human MCF7 cells assessed as accumulation at S phase at 4 uM after 24 hrs by propidium iodide staining-based flow cytometry (reference value: 20.17%). Type of assay: functional.
The test system of assay [4] is MCF7. Kind of assay: Cell cycle arrest in human MCF7 cells assessed as accumulation at G2/M phase at 4 uM after 24 hrs by propidium iodide staining-based flow cytometry (reference value: 15.79%). Type of assay: functional.
Assay [5] concerns MCF7. Put plainly: Induction of apoptosis in human MCF7 cells expressing P21 promoter -145/+8 with luciferase gene assessed as upregulation of p21 protein expression at 4 uM by Western blot analysis relative to control. The format is functional, cell-based. On the technique in general: A western blot detects proteins with antibodies after separation by electrophoresis.

Calls of active or inactive are those of the source. The rule behind the calls is not given here.

Regarding `COc1cccc2c1C(=O)c1c(O)c3c(c(O)c1C2=O)C[C@@](O)(C(=O)CO)C[C@@H]3O[C@H]1C[C@H](N)[C@H](O)[C@H](C)O1` [DOXORUBICIN], the inhibition entry in assay [1] was “Active”. Moreover, the Activity amounted to 94.85% in assay [2], 4% in assay [3] and 1.15% in assay [4]. Also, the result in assay [5] was Active.
